From patent US9206136B2, “Pyrazolyl-based carboxamides I” (Grünenthal GmbH, priority 2013, dated 2015)

Tests used:
[1] = target: T1, CRAC channel (endogenous SOC in HEK293 cells) (Homo sapiens, UniProt Q96D31); assay: HEK Calcium Influx Assay (FLIPR); format: cell-based; conditions: 10 μM compound, thapsigargin store depletion, Ca2+ signal 9.5-10 min post-administration, read-out: % inhib. [@ 10 μM] FLIPR
T1 construct: host or cells: HEK293
Method: Compounds of the invention have been tested for their effects on CRAC channels according to the following or similar procedures.
The effect of compounds of the invention on intracellular [Ca^2+] was tested in the HEK293 cell line (ECACC).
HEK293 cells were cultured in DMEM/F12/Glutamax (Gibco) containing 10% FCS (Gibco), and maintained at 37° C., 5% CO2. Cell were split twice a week [3·10^6 (Mon-Thu) and 1·10^6 (Thu-Mon) cells/50 ml medium in T-175 ZK culture flasks, respectively]. 24 hours pre-experiment, cells were seeded on 96 well plates (Poly-D-Lysine 96well Black/Clear Plate, BD Biocoat REF 356640) at a density of 40,000 cells/well in DMEM/F12 (Gibco) containing 10% FCS (Gibco), and maintained at 37° C., 5% CO2.
Prior to store-depletion, cell culture medium was removed and cells were loaded with the a Ca^2+-sensitive fluorescent dye comprised within the Calcium-4-assay kit (Molecular Devices) in nominally Ca^2+-free HBS buffer (140 mM NaCl, 4 mM KCl, 0.2 mM MgCl2, 11 mM D-glucose, and 10 mM HEPES, pH 7.4) according to manufacturer's instruction for 60 min at 37° C., 5% CO2.
Passive depletion of intracellular Ca^2+-stores was then triggered by employing the SERCA inhibitor thapsigargin (2 μM final) for 10 min in the dark (rt). To prevent immediate Ca^2+-entry via the activated Store-operated channels (SOCs), cells were maintained in Ca^2+-free HBS buffer comprising 100 μM EGTA during store-depletion.
Intracellular changes in [Ca^2+] were subsequently monitored with the FLIPR device (Molecular Devices). In brief, baseline imaging post-store depletion was allowed for 1 min before adjusting the extracellular buffer to 3 mM CaCl2. Increases in intracellular [Ca^2+] due to pre-activated SOC channels were monitored for 15 min until intracellular Ca^2+ levels had declined into a steady-state. Finally, compounds were administered and Ca^2+ signals were recorded for additional 10 min.
Inhibition of endogenous SOC in HEK293 cells was quantified employing the average Ca^2+ signal measured from 9.5-10 min post-administration. Zero percent inhibition (MAX) was defined as the Ca^2+ signal recorded from wells to which DMSO-only had been added instead of compound. Hundred percent inhibition (MIN) was defined as the signal obtained from wells in which cells haven't been treated with TG prior to Ca^2+ addition and to which DMSO-only had been added instead of compound. For routine IC50 determinations of compounds, 8 concentrations of a serial dilution (1:3.16) were tested, starting off from 10 μM. Reliable IC50's could consequently be determined only, if they were at least sub 2.5-3 μM.

[2] = tested on: Interleukin-2 (IL-2) production/release in Jurkat T cell line clone E6-1; assay: Jurkat IL-2 Production Assay; format: cell-based; conditions: Homo sapiens; Jurkat T cells stimulated with 15 μg/ml PHA for 22 hours; IL-2 in supernatant (AlphaLisa)
Method: Jurkat IL-2 Production Assay
The effect of compounds of the invention on Interleukin-2 (IL-2) production/release was tested in the Jurkat T cell line (ECACC) clone E6-1.
Jurkat T cells were cultured in DMEM/F12/Glutamax (Gibco) containing 10% FCS (Gibco), and maintained at 37° C., 5% CO2. Cells were split twice a week [5·10^6 (Mon-Thu) and 1·10^7 (Thu-Mon) cells/50 ml medium in T-175 ZK culture flasks, respectively].
Prior to experiment, cells were seeded on 96 well plates (Cellstar 96 Well; Cat No. 655180, Greiner bio-one) at a density of 5·10^5 cells/well in DMEM/F12/Glutamax (Gibco) containing 10% FCS (Gibco), and incubated for 60 min at 37° C., 5% CO2. Subsequently, compounds were added and cells were allowed to incubate for 30 min at 37° C., 5% CO2. Cells were then stimulated with 15 μg/ml Phyto-hemagglutinin (PHA; Sigma) for 22 hours at 37° C., 5% CO2.
Before sampling of the supernatants, cells were spun down (200*g/5 min/RT). The amount of IL-2 released into the supernatant was quantified with the human IL-2 AlphaLisa kit (Perkin Elmer) according to manufacturer's instructions. Luminescence proximity measurements were carried out in the Synergy H4 reader (BioTek) employing the fluorescence setting of the reader (ex: 680/30 nm; em: 620/40 nm).
Inhibition of IL-Production/Release in/from Jurkat T Cells Cells was Quantified as Follows:
Zero percent inhibition (MAX) was defined as the [IL-2] determined in supernatants derived from cells to which PHA & DMSO-only had been added instead of compound. Hundred percent inhibition (MIN) was defined as the [IL-2] determined in supernatants derived from cells that had been pre-treated with 1 μM CyclosporineA (Sigma) before the addition of 15 μg/ml PHA.
For routine IC50 determinations of compounds, 8 concentrations of a serial dilution (1:3.16) were tested, starting off from 10 μM.

T1 sequence (Q96D31 whole entry): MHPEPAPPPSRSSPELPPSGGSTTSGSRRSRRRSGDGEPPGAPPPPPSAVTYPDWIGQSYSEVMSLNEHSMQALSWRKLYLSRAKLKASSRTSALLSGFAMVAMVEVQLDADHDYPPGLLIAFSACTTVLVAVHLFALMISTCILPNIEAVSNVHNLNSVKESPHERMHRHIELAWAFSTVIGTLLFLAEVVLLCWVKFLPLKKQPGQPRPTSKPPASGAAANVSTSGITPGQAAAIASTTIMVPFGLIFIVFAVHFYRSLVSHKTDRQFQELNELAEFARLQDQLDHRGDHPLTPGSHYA

Cc1ccc(C2CCOCC2)cc1-c1cc(C(=O)Nc2c(F)cccc2F)nn1C [Example 22, N-(2,6-Difluoro-phenyl)-1-methyl-5-(2-methyl-5-tetrahydro-pyran-4-yl-phenyl)-1H-pyrazole-3-carboxylic acid amide]
inhibition at 10 µM [1]: > 70% | IC50 [2]: 1 to 5 µM

Cc1ccc(-c2ncn(C)n2)cc1-c1cc(C(=O)Nc2c(F)cccc2F)nn1C [Example 23, N-(2,6-Difluoro-phenyl)-1-methyl-5-[2-methyl-5-(1-methyl-1H-[1,2,4]triazol-3-yl)-phenyl]-1H-pyrazole-3-carboxylic acid amide]
inhibition at 10 µM [1]: < 50% | IC50 [2]: 1 to 5 µM

Cc1cc(-c2nccs2)ccc1-c1cc(C(=O)Nc2c(F)cccc2F)nn1C [Example 24, N-(2,6-Difluoro-phenyl)-1-methyl-5-(2-methyl-4-thiazol-2-yl-phenyl)-1H-pyrazole-3-carboxylic acid amide]
inhibition at 10 µM [1]: > 70% | IC50 [2]: 1 to 5 µM

Cc1ccc(-c2nccs2)cc1-c1c(C)c(C(=O)Nc2c(F)cccc2F)nn1C [Example 25, N-(2,6-Difluoro-phenyl)-1,4-dimethyl-5-(2-methyl-5-thiazol-2-yl-phenyl)-1H-pyrazole-3-carboxylic acid amide]
inhibition at 10 µM [1]: < 50% | IC50 [2]: 1 to 5 µM

Cc1ccc(-c2nccs2)cc1-c1c(C)c(C(=O)Nc2ccncc2F)nn1C [Example 26, N-(3-Fluoro-pyridin-4-yl)-1,4-dimethyl-5-(2-methyl-5-thiazol-2-yl-phenyl)-1H-pyrazole-3-carboxylic acid amide]
inhibition at 10 µM [1]: < 50% | IC50 [2]: 1 to 5 µM

Cc1c(C(=O)Nc2c(F)cccc2F)nn(C)c1-c1cccc(-c2nccs2)c1 [Example 27, N-(2,6-Difluoro-phenyl)-1,4-dimethyl-5-(3-thiazol-2-yl-phenyl)-1H-pyrazole-3-carboxylic acid amide]
inhibition at 10 µM [1]: > 70% | IC50 [2]: 0.5 to 1 µM

Cc1nnc(-c2ccc(C)c(-c3cc(C(=O)Nc4c(F)cccc4F)nn3C)c2)[nH]1 [Example 28, N-(2,6-Difluoro-phenyl)-1-methyl-5-[2-methyl-5-(5-methyl-4H-[1,2,4]triazol-3-yl)-phenyl]-1H-pyrazole-3-carboxylic acid amide]
inhibition at 10 µM [1]: < 50% | IC50 [2]: 1 to 5 µM

Cn1nc(C(=O)Nc2c(F)cccc2F)cc1-c1cc(-c2ncco2)ccc1OC(F)(F)F [Example 30, N-(2,6-Difluoro-phenyl)-1-methyl-5-[5-oxazol-2-yl-2-(trifluoromethyloxy)-phenyl]-1H-pyrazole-3-carboxylic acid amide]
inhibition at 10 µM [1]: > 70% | IC50 [2]: 0.5 to 1 µM

Cn1nc(C(=O)Nc2ccncc2F)cc1-c1cc(-c2ncco2)ccc1OC(F)(F)F [Example 31, N-(3-Fluoro-pyridin-4-yl)-1-methyl-5-[5-oxazol-2-yl-2-(trifluoromethyloxy)-phenyl]-1H-pyrazole-3-carboxylic acid amide]
inhibition at 10 µM [1]: 50 to 70% | IC50 [2]: 1 to 5 µM

Cc1ccc(-c2nnc[nH]2)cc1-c1cc(C(=O)Nc2c(F)cccc2F)nn1C [Example 32, N-(2,6-Difluoro-phenyl)-1-methyl-5-[2-methyl-5-(4H-[1,2,4]triazol-3-yl)-phenyl]-1H-pyrazole-3-carboxylic acid amide]
inhibition at 10 µM [1]: < 50% | IC50 [2]: 1 to 5 µM

Cn1nc(C(=O)Nc2c(F)cncc2F)cc1-c1cc(-c2ncco2)ccc1OC(F)(F)F [Example 33, N-(3,5-Difluoro-pyridin-4-yl)-1-methyl-5-[5-oxazol-2-yl-2-(trifluoro-methyloxy)-phenyl]-1H-pyrazole-3-carboxylic acid amide]
inhibition at 10 µM [1]: 50 to 70% | IC50 [2]: 0.5 to 1 µM

COc1ccc(C2CC2)cc1-c1c(C)c(C(=O)Nc2c(F)cccc2F)nn1C [Example 34, 5-(5-Cyclopropyl-2-methoxy-phenyl)-N-(2,6-difluoro-phenyl)-1,4-dimethyl-1H-pyrazole-3-carboxylic acid amide]
inhibition at 10 µM [1]: > 70% | IC50 [2]: 0.5 to 1 µM

COc1ccc(C2CC2)cc1-c1c(C)c(C(=O)Nc2c(F)cncc2F)nn1C [Example 35, 5-(5-Cyclopropyl-2-methoxy-phenyl)-N-(3,5-difluoro-pyridin-4-yl)-1,4-dimethyl-1H-pyrazole-3-carboxylic acid amide]
inhibition at 10 µM [1]: > 70% | IC50 [2]: 0.5 to 1 µM

Cn1nc(C(=O)Nc2c(F)cccc2F)cc1-c1cc(C2CC2)ccc1OC(F)(F)F [Example 36, 5-[5-Cyclopropyl-2-(trifluoromethyloxy)-phenyl]-N-(2,6-difluoro-phenyl)-1-methyl-1H-pyrazole-3-carboxylic acid amide]
inhibition at 10 µM [1]: > 70% | IC50 [2]: < 0.5 µM

Cn1nc(C(=O)Nc2c(F)cncc2F)cc1-c1cc(C2CC2)ccc1OC(F)(F)F [Example 37, 5-[5-Cyclopropyl-2-(trifluoromethyloxy)-phenyl]-N-(3,5-difluoro-pyridin-4-yl)-1-methyl-1H-pyrazole-3-carboxylic acid amide]
inhibition at 10 µM [1]: > 70% | IC50 [2]: < 0.5 µM

Cn1nc(C(=O)Nc2ccncc2F)cc1-c1cc(C2CC2)ccc1OC(F)(F)F [Example 38, 5-[5-Cyclopropyl-2-(trifluoromethyloxy)-phenyl]-N-(3-fluoro-pyridin-4-yl)-1-methyl-1H-pyrazole-3-carboxylic acid amide]
inhibition at 10 µM [1]: > 70% | IC50 [2]: 1 to 5 µM

Cn1nc(C(=O)Nc2c(F)cccc2F)cc1-c1ccc(C2CC2)cc1OC(F)(F)F [Example 39, 5-[4-Cyclopropyl-2-(trifluoromethyloxy)-phenyl]-N-(2,6-difluoro-phenyl)-1-methyl-1H-pyrazole-3-carboxylic acid amide]
inhibition at 10 µM [1]: > 70% | IC50 [2]: < 0.5 µM

Cn1nc(C(=O)Nc2c(F)cncc2F)cc1-c1ccc(C2CC2)cc1OC(F)(F)F [Example 40, 5-[4-Cyclopropyl-2-(trifluoromethyloxy)-phenyl]-N-(3,5-difluoro-pyridin-4-yl)-1-methyl-1H-pyrazole-3-carboxylic acid amide]
inhibition at 10 µM [1]: > 70% | IC50 [2]: < 0.5 µM

Cn1nc(C(=O)Nc2ccncc2F)cc1-c1ccc(C2CC2)cc1OC(F)(F)F [Example 41, 5-[4-Cyclopropyl-2-(trifluoromethyloxy)-phenyl]-N-(3-fluoro-pyridin-4-yl)-1-methyl-1H-pyrazole-3-carboxylic acid amide]
inhibition at 10 µM [1]: > 70% | IC50 [2]: 1 to 5 µM

Cc1ccc(-c2ncco2)cc1-c1c(N)c(C(=O)Nc2c(F)cncc2F)nn1C [Example 43, 4-Amino-N-(3,5-difluoro-pyridin-4-yl)-1-methyl-5-(2-methyl-5-oxazol-2-yl-phenyl)-1H-pyrazole-3-carboxylic acid amide]
inhibition at 10 µM [1]: < 50% | IC50 [2]: 1 to 5 µM
